Laboratory results: patent US20040076974A1, “Liver necrosis predictive genes” (priority 2002, published 2004)
Where “and” joins values, the source holds several entries; their conditions need not be identical. Equal values may be shown once. Read-outs that look alike come from different tables or passages of the source.

Key:
[1] = system: toxicologically relevant rat genes (rat CT array)
Sprague Dawley rats = settings: rat; for Liver Necrosis / Score (histopathology liver necrosis severity score): intraperitoneal; for Liver Necrosis: 72 hours after treatment; for Score (histopathology liver necrosis severity score): 72 hours, 1 = not remarkable, 2 and higher increasing severity
Outline: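 Toxicity calls (necrosis present or absent at 72 h) and histopathology scores were correlated with tissue gene expression from Crl:CD Sprague Dawley rats. Animals, usually 3 treated with compound by i.p. route and 3 given vehicle, were killed at 6, 24 or 72 h and tissues frozen immediately in liquid nitrogen.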

[2] = 24 h, dose 20, ratio treatment/control
[3] = 24 h, dose 20, ratio treatment/control, listed as PHEN

NNc1ccccc1 [phenylhydrazine]
Aflatoxin B1 aldehyde reductase ([1]; 24 h): 0.6558 and 0.8284 | Bax (alpha) [1, 2]: 1.114 | Proliferating cell nuclear antigen gene [1, 2]: 0.9203 | 3-hydroxyisobutyrate dehydrogenase [1, 3]: 0.9143 and 0.9803 | 14-3-3 zeta [1, 3]: 1.282 and 1.371 | 60S ribosomal protein L6 [1, 3]: 0.8081 and 0.8097 | ATPase inhibitor (rat mitochondrial IF1 protein) [1, 3]: 0.5186 and 0.4781 | Alpha 1 - inhibitor III [1, 3]: 0.5075 and 0.4307 | Alpha-2-macroglobulin [1, 3]: 0.5649 and 0.479 | Bax (alpha) [1, 3]: 1.115 | Beta-actin [1, 3]: 1.318 and 1.347 | Calpactin I heavy chain [1, 3]: 1.093 and 1.232 | Carbamyl phosphate synthetase I [1, 3]: 0.8997 and 0.8454 | Carbonic anhydrase III [1, 3]: 2.069 and 2.604 | Carbonyl reductase [1, 3]: 1.013 and 1.035 | Cathepsin L, sequence 2 [1, 3]: 1.124 | Cofilin [1, 3]: 1.075 and 0.9686 | Cyclin G [1, 3]: 1.06 and 1.18 | DNA polymerase beta [1, 3]: 0.6488 and 0.5275 | Dynamin-1 (D100) [1, 3]: 0.9853 and 0.8394 | Endogenous retroviral sequence, 5′ and 3′ LTR [1, 3]: 1.197 and 1.103 | Enolase alpha [1, 3]: 0.7101 and 0.7241 | Epidermal growth factor [1, 3]: 0.7579 and 0.6975 | Equilbrative nitrobenzylthioinosine-sensitive nucleoside transporter [1, 3]: 0.6046 and 0.5693 | Extracellular-signal-regulated kinase 1 [1, 3]: 1.377 and 1.805 | Fas antigen [1, 3]: 1.2 and 1.204 | Gadd45 [1, 3]: 1.142 and 1.49 | Gadd153 [1, 3]: 1.087 and 1.085 | Gamma-actin, cytoplasmic [1, 3]: 0.7836 and 0.7811 | Glucose-regulated protein 78 [1, 3]: 0.8506 and 0.7386 | Heme oxygenase [1, 3]: 1.498 and 1.908 | Hepatic lipase [1, 3]: 0.5441 and 0.4993 | ID-1 [1, 3]: 1.157 and 1.321 | IgE binding protein [1, 3]: 1.098 and 1.166 | IkB-a [1, 3]: 0.8328 and 0.7684 | Insulin-like growth factor I [1, 3]: 0.8551 and 0.7944 | Insulin-like growth factor binding protein 1 [1, 3]: 1.056 and 0.9665 | Insulin-like growth factor binding protein 3 [1, 3]: 0.8807 and 0.8119 | Integrin beta1 [1, 3]: 1.12 | L-gulono-gamma-lactone oxidase [1, 3]: 1.301 and 1.543 | Liver fatty acid binding protein [1, 3]: 0.6905 and 0.5494 | MAP kinase kinase [1, 3]: 1.023 and 1.164 | Macrophage inflammatory protein-2 alpha [1, 3]: 1.132 and 1.347 | Matrin F/G [1, 3]: 1.071 and 0.9981 | Matrix metalloproteinase-1 [1, 3]: 1.581 and 1.897 | Melanoma-associated antigen ME491 [1, 3]: 0.9841 | Monocyte chemotactic protein receptor (CCR2) [1, 3]: 1.3 and 1.499 | Multidrug resistant protein-2 [1, 3]: 1.286 and 1.334 | N-hydroxy-2-acetylaminofluorene sulfotransferase (ST1C1) [1, 3]: 0.5527 and 0.5091 | Nucleoside diphosphate kinase beta isoform [1, 3]: 1.1 | Organic anion transporter 3 [1, 3]: 1.058 | Organic cation transporter 3 [1, 3]: 0.9117 and 0.8387 | Ornithine decarboxylase [1, 3]: 1.479 and 1.694 | PAR interacting protein [1, 3]: 0.9791 and 0.9269 | Phase-1 RCT 252 [1, 3]: 0.7562 | Phase-1 RCT-15 [1, 3]: 3.553 and 2.982 | Phase-1 RCT-39 [1, 3]: 0.9896 | Phase-1 RCT-49 [1, 3]: 0.869 and 0.8084 | Phase-1 RCT-50 [1, 3]: 1.203 | Phase-1 RCT-68 [1, 3]: 1.203 | Phase-1 RCT-78 [1, 3]: 1.292 | Phase-1 RCT-83 [1, 3]: 0.5669 and 0.5525 | Phase-1 RCT-88 [1, 3]: 2.1 | Phase-1 RCT-89 [1, 3]: 0.8262 | Phase-1 RCT-92 [1, 3]: 2.107 | Phase-1 RCT-102 [1, 3]: 1.096 | Phase-1 RCT-137 [1, 3]: 0.4276 and 0.4239 | Phase-1 RCT-144 [1, 3]: 0.8929 | Phase-1 RCT-152 [1, 3]: 0.7359 and 0.7085 | Phase-1 RCT-168 [1, 3]: 0.7781 | Phase-1 RCT-181 [1, 3]: 1.504 | Phase-1 RCT-182 [1, 3]: 0.6963 and 0.8836 | Phase-1 RCT-189 [1, 3]: 0.7721 and 0.6053 | Phase-1 RCT-191 [1, 3]: 0.6314 and 0.7152 | Phase-1 RCT-192 [1, 3]: 0.9295 | Phase-1 RCT-225 [1, 3]: 1 | Phase-1 RCT-264 [1, 3]: 0.5562 and 0.6031 | Phase-1 RCT-270 [1, 3]: 0.728 | Phase-1 RCT-271 [1, 3]: 1.199 | Phase-1 RCT-288 [1, 3]: 0.8205 and 0.8069 | Phase-1 RCT-295 [1, 3]: 1.57 | Proliferating cell nuclear antigen gene [1, 3]: 1.089 | Ribosomal protein L13A [1, 3]: 1.024 | Ribosomal protein S8 [1, 3]: 0.7171 and 0.6731 | Ribosomal protein S17 [1, 3]: 0.7324 and 0.6158 | Senescence marker protein-30 [1, 3]: 0.7313 and 0.841 | Sodium/bile acid cotransporter [1, 3]: 0.6926 and 0.7429 | Superoxide dismutase Mn [1, 3]: 1.092 and 1.114 | Thymosin beta-10 [1, 3]: 0.7195 and 0.7559 | Transthyretin [1, 3]: 0.4631 and 0.4873 | Ubiquitin conjugating enzyme (RAD 6 homologue) [1, 3]: 0.7763 and 0.6535 | Uncoupling protein 2 [1, 3]: 0.9638 and 0.9416 | Zinc finger protein [1, 3]: 0.8961 and 0.8505 | c-jun [1, 3]: 1.14 and 1.384 | c-myc [1, 3]: 1.235 and 1.141 | p53 [1, 3]: 1.067 and 1.196 | {Ribosomal protein L6} [1, 3]: 1.368 and 1.181 | Paraoxonase 1 ([1]; rat, in vivo): 0.4982 and 0.4752 | Liver Toxicity Necrosis Classification (Sprague Dawley rats; in vivo): no | Liver Necrosis (Sprague Dawley rats; dose 20 mg/kg): no | Score (histopathology liver necrosis severity score) (Sprague Dawley rats; dose 20 mg/kg): 1 | Liver Necrosis (Sprague Dawley rats; dose 80 mg/kg): no | Score (histopathology liver necrosis severity score) (Sprague Dawley rats; dose 80 mg/kg): 1
